Consider one compound from patent US7071383B2, “Chimeric genes and methods for increasing the lysine and threonine content of the seeds of plants” (E. I. du Pont de Nemours and Company, priority 1992, dated 2006).

Structures are written as SMILES. “And” between values parts separate entries of the source, which are not always exact repeats. Identical values can stand only once. Bounds are passed on as bounds.

In test [1] the test system is tobacco DHDPS. The experiment in a line: DHDPS enzyme assay of plant extracts, sensitivity to lysine. Format: biochemical. Here is the method: The leaf extracts were assayed for DHDPS activity as described in Example 4.
To test this hypothesis, total protein extracts were prepared from mature seeds and assayed for DHDPS activity. Approximately 30-40 mg of seeds were put into a 1.5 mL disposable plastic microfuge tube and ground in 0.25 mL of 50 mM Tris-HCl, 50 mM NaCl, 1 mM EDTA (TNE). The grinding was done using a motorized grinder with disposable plastic shafts designed to fit into the microfuge tube. The resultant suspensions were centrifuged for 5 min at room temperature in a microfuge to remove particulates. Approximately 0.1 mL of aqueous supernatant was removed between the pelleted material and the upper oil phase. The seed extracts were assayed for DHDPS activity as described in Example 4.
To assay for expression of the chimeric genes in leaves of the transformed plants, protein was extracted as described in Example 7 for AKIII, and as described in Example 9 for DHDPS. The leaf extracts were assayed for DHDPS activity as described in Examples 4 and 9. […] Extracts were characterized immunologically for expression of AKIII and DHDPS proteins via Western blots as described in Examples 7 and 10.

Test [2] relates to Gif106M1 transformed with pBT436. The experiment in a line: Growth inhibition by lysine in M9 media. Format: cell-based, E. coli. The method, then: Addition of lysine (or diaminopimelate which is readily converted to lysine in vivo) at a concentration of approximately 0.2 mM to the growth medium inhibits the growth of Gif106M1 transformed with pBT436. M9 media [see Sambrook et al. (1989) Molecular Cloning, A Laboratory Manual, Cold Spring Harbor Laboratory Press] supplemented with the arginine and isoleucine, required for Gif106M1 growth, and ampicillin, to maintain selection for the pBT436 plasmid, was used. This inhibition is reversed by addition of threonine plus methionine to the growth media. […] This property of pBT436-transformed Gif106M1 was used to select for mutations in lysC that encoded lysine-insensitive AKIII.

Test [3] has as its target T1, AKIII-M4 (Escherichia coli, UniProt P08660, G401A/T352I).
T1 construct: made in house; host or cells: E. coli BL21(DE3), crude extract
Put plainly: AK enzyme assay, sensitivity to L-lysine. Format: biochemical, E. coli. Particulars: 15 mM L-lysine. Here is the method:
(§1) AK activity was assayed as shown below:
(§2) Assay mix (for 12 assay tubes): • 4.5 mL H2O • 1.0 mL 8M KOH • 1.0 mL 8M NH2OH-HCl • 1.0 mL IM Tris-HCl pH 8.0 • 0.5 mL 0.2M ATP (121 mg/mL in 0.2M NaOH) • 50 μL 1M MgSO4
(§3) Each 1.5 mL eppendorf assay tube contained: • 0.64 mL assay mix • 0.04 mL 0.2 M L-aspartic acid or 0.04 mL H2O • 0.0005-0.12 mL extract • H2O to total volume 0.8 mL
(§4) Assay tubes were incubated at 30° C. for desired time (10-60 min). Then 0.4 mL FeCl3 reagent (10% w/v FeCl3, 3.3% trichloroacetic acid, 0.7 M HCl) was added and the material centrifuged for 2 min in an eppendorf centrifuge. The supernatant was decanted. The OD was read at 540 nm and compared to the aspartyl-hydroxamate standard.
(§5) Approximately 80% of the AKIII activity was in the supernatant fraction. The specific activity of wild type and mutant crude extracts was 5-7 μM product per min per milligram total protein. Wild type AKIII was sensitive to the presence of L-lysine in the assay.

Test [4] has as its target T2, AKIII-M2 (Escherichia coli, UniProt P08660, G401A/M318I).
T2 construct: made in house; host or cells: E. coli BL21(DE3), crude extract
Put plainly: AK enzyme assay, sensitivity to L-lysine. Format: biochemical, E. coli. Particulars: 15 mM L-lysine. The method, then:
as §1, §2, §3, §4, §5

In test [5] the target is T3, Wild type AKIII (Escherichia coli, UniProt P08660, G401A).
T3 construct: the coding region of the wild type E. coli lysC gene, which encodes AKIII; made in house; host or cells: E. coli BL21(DE3), supernatant of crude extract
Put plainly: AK enzyme assay, sensitivity to L-lysine. Format: biochemical, E. coli. Here is the method: as §1, §2, §3, §4, §5

In test [6] the target is T4, AKIII-M3 (Escherichia coli, UniProt P08660, G401A/T352I).
T4 construct: made in house; host or cells: E. coli BL21(DE3), crude extract
Put plainly: AK enzyme assay, sensitivity to L-lysine. As to conditions: 15 mM L-lysine. Format: biochemical, E. coli. The method, then:
as §1, §2, §3, §4, §5

Test [7] concerns the target T5, E. coli DHDPS (Escherichia coli, UniProt P0A6L2, F2V).
T5 construct: the chloroplast targeting signal fused to the entire ecodapA coding region; expressed in transfected cells; host or cells: transgenic tobacco plants, leaf extracts (35S promoter) or mature seed extracts (phaseolin promoter)
The experiment in a line: biochemical. Format: biochemical. Here is the method: (§6) DHDPS enzyme activity was assayed as follows: Assay mix (for 10×1.0 mL assay tubes or 40×0.25 mL for microtiter dish); made fresh, just before use:
(§7) Color allowed to develop for 30-60 min. Precipitate spun down in eppendorf centrifuge. OD540 vs 0 min read as blank. For MicroAssay, aliquot 0.2 mL into microtiter well and read at OD530.
For Corynebacterium DHDPS, the activity was measured in the supernatant fraction of uninduced extracts, rather than induced extracts.

Test [8] relates to DE126. The experiment in a line: Growth inhibition by L-lysine in synthetic medium. Format: cell-based, E. coli. The method, then: (4) This step involves production of a male derivative of strain DE125. Strain DE125 was mated with the male strain AB1528 [F′16/delta(gpt-proA)62, lacY1 or lacZ4, glnV44, galK2 rac^−(?), hisG4, rfbd1, mgl-51, kdgK51(?), ilvC7, argE3, thi-1] (E. coli Genetic Stock Center #1528) by the method of conjugation. F′16 carries the ilvGMEDAYC gene cluster. The two strains were cross streaked on rich medium permissive for the growth of each strain. After incubation, the plate was replica plated to a synthetic medium containing tetracycline, arginine, vitamin B1 and glucose. DE125 cannot grow on this medium because it cannot synthesize isoleucine. Growth of AB1528 is prevented by the inclusion of the antibiotic tetracycline and the omission of proline and histidine from the synthetic medium. A patch of cells grew on this selective medium. These recombinant cells underwent single colony isolation on the same medium. The phenotype of one clone was determined to be Ilv^+, Arg^−, TetR, Lysine-sensitive, male specific phage (MS2)-sensitive, consistent with the simple transfer of F′16 from AB1528 to DE125. This clone was designated DE126 and has the genotype F′16/malE52::Tn10, arg^−, ilvA296, thrA1101, metL100, lysC^+, λ^−, rpsL9, malT1, xyl-7, mtl-2, thi-1?, supE44?. It is inhibited by 20 μg/mL of L-lysine in a synthetic medium.

In test [9] the target is T6, Corynebacterium DHDPS (Corynebacterium glutamicum, UniProt P19808).
T6 construct: made in house; host or cells: E. coli BL21(DE3), supernatant of uninduced extract
Put plainly: DHDPS enzyme assay, sensitivity to L-lysine. Format: biochemical. Particulars: 70 mM L-lysine. Here is the method: as §6, §7
E. coli DHDPS was sensitive to the presence of L-lysine in the assay. Fifty percent inhibition was found at a concentration of about 0.5 mM. For Corynebacterium DHDPS, the activity was measured in the supernatant fraction of uninduced extracts, rather than induced extracts. Enzyme activity was about 4 OD530 units per min per milligram protein in a 0.25 mL assay.

T3 sequence (P08660 other isoform, or with tags, fused parts or gaps G401A): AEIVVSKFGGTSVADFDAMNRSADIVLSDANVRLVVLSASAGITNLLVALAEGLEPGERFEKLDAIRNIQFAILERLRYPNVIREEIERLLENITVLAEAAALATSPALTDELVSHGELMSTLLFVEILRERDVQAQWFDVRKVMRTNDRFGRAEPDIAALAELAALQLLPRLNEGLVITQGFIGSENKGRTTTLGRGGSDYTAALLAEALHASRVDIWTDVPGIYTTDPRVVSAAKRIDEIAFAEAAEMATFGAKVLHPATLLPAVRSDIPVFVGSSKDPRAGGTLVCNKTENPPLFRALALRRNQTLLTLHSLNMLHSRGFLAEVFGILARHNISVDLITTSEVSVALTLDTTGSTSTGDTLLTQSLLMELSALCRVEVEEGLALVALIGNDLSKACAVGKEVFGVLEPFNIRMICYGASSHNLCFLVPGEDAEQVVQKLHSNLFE
T5 sequence (P0A6L2 whole entry F2V, the tested form may be a part): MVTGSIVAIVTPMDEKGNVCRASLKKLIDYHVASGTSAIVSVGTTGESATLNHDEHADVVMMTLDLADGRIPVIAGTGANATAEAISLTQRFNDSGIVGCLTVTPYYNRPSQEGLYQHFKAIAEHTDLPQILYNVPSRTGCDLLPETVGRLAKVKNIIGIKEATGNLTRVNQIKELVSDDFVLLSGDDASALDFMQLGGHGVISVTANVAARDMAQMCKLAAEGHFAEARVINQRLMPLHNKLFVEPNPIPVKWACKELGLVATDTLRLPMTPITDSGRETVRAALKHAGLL
T1 sequence (P08660 other isoform, or with tags, fused parts or gaps T352I/G401A): as the sequence (P08660 other isoform, or with tags, fused parts or gaps G401A) above, with T351I counted along it
T4 sequence (P08660 other isoform, or with tags, fused parts or gaps T352I/G401A): as the sequence (P08660 other isoform, or with tags, fused parts or gaps G401A) above, with T351I counted along it
T6 sequence (P19808 other isoform, or with tags, fused parts or gaps): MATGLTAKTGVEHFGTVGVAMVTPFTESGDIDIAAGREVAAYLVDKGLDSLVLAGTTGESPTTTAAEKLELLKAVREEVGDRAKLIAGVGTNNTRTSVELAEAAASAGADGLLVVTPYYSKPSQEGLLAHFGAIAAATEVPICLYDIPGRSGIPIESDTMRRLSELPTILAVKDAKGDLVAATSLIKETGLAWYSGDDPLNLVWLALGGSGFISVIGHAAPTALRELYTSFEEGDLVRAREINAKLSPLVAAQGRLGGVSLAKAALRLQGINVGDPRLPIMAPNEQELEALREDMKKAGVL
T2 sequence (P08660 other isoform, or with tags, fused parts or gaps M318I/G401A): as the sequence (P08660 other isoform, or with tags, fused parts or gaps G401A) above, with M317I counted along it

Usually IC50 stands for the concentration that inhibits the measured activity by half. As for `NCCCC[C@H](N)C(=O)O` [L-lysine], the inhibition by lysine entry in [1] (0.1 mM lysine, leaf extracts) is reported as “completely inhibited”; in [1] (0.4 mM lysine, seed extracts), “completely inhibited”. For the same compound, the “concentration in growth medium that inhibits growth” value in test [2] is recorded as “approximately 0.2 mM”. In addition, the “inhibition by L-lysine” value in [3], in test [4], in [6] and in test [9] was “not inhibited at all” each time. The “inhibition of wild type AKIII” value in test [5] (1 mM lysine) is above 90%. Further, the IC50 in [5] (L-lysine concentration for fifty percent inhibition of AKIII, crude extract) is ~400 µM and 300 to 400 µM; in test [7], around 500 µM. For the same compound, the activity retained in test [7] (0.1 mM lysine, leaf extracts) is listed as 80-90%; in test [7] (0.4 mM lysine, seed extracts), “about 50%”. Besides, in test [7] (vs wheat germ DHDPS), the “fold less sensitive to inhibition by lysine than a typical plant DHDPS” value is recorded as “about 20 fold”. The “concentration that inhibits growth” value in test [8] came to 20 µg/mL.
